Source: patent US6632924B2, “Method of measuring plasma membrane targeting of GLUT4” (Whitehead Institute for Biomedical Research, priority 1999, dated 2003)

How the values were obtained:
[1] = tested on: GLUT4 reporter (GLUT4myc7-GFP) in 3T3-L1 cells; assay: Flow cytometry assay of GLUT4 reporter translocation to the plasma membrane in 3T3-L1 cells; type: cell-based, murine; details: for fold increase in the proportion of total GLUT4 present at the cell surface: insulin 80 nM
Procedure: A GLUT4 translocation assay was carried out as follows: 3T3 L1 preadipocytes were infected with a retrovirus encoding a GLUT4 construct fused to green fluorescent protein (GFP) at its carboxy terminus, and containing seven myc epitope tags in the first exofacial loop. A population of cells expressing a narrow window of green fluorescence was isolated by fluorescence activated cell sorting (FACS). These cells were propagated and differentiated on 10 cm plates, and were reseeded on 6-well dishes the day prior to performing the GLUT4 translocation assay. Cells were serum starved for 3 hours, then stimulated or not with 160 nM insulin for 10 minutes. They were then placed on ice and washed with cold phosphate buffered saline with calcium and magnesium (PBS++). All subsequent steps were done at 4° C. Cells were incubated with anti-myc antibody (9E10), washed briefly with PBS++, and incubated with phycoerythrin-conjugated F(ab)2 antimouse IgG. Cells were washed with PBS++, resuspended using EDTA, and analysed by two color flow cytometry.
One protocol for carrying out the method of assessing translocation of modified GLUT4 is as follows: 3T3L1 cells are maintained at a subconfluent density, infected with retrovirus expression vectors which include DNA encoding modified GLUT4 and induced to differentiate into adipocytes. After being cultured (e.g., for 8-12 days) under appropriate conditions, the cells are reseeded onto plates (e.g., 6-well plates) and serum starved (e.g., for 3 or more hours). Some cells are stimulated by insulin (e.g., 160 nM, 10 minutes), placed on ice and washed at 4° C. with PBS++ (phosphate buffered saline containing calcium and magnesium). Anti-myc antibody (9E10, available from the American Type Culture Collection) is added to the cells ([…], 1 ½ hours, 4° C.). The cells are again washed with PBS++ at 4° C. and an […] labeled with a red fluorophore (R-phycoerythrin (R-PE) conjugated antimouse IgG, 50 μg/ml, 45 minutes, 4° C.) is added. Another washing with PBS++(4° C.) is carried out, the cells are suspended with EDTA and FACS (fluorescences activated cell scanning/sorting) is carried out.
Confluent cells were reseeded on the indicated day of differentiation to six well plates (Coming, Costar #3506) one day before use in experiments, and were starved in DMEM without fetal bovine serum for at least 3 hours before insulin stimulation. Insulin was used at 80 nM or 160 nM; no difference was noted between these concentrations in either 3T3-L1 or CHO cells. After treatment in the presence or absence of insulin for the times indicated in each figure, cells were quickly transferred to 4° C. and washed with cold phosphate buffered saline containing 0.9 mM Ca^++ and 0.5 mM Mg^++ (PBS++). All subsequent steps were carried out at 4° C., and staining of externalized myc epitope was done on adherent cells. Cells were incubated with a 1:200 dilution of anti-myc (9E10) ascites in PBS++, 2% bovine serum albumin, 4% donkey serum for 1.5 hours. Cells were then washed twice in PBS++, for 5 min. each time. They were then incubated 45 min. in 12.5 µg/ml R-phycoerythrin conjugated donkey F(ab′)2 anti-mouse IgG secondary antibody, diluted in PBS++, 2% BSA, 4% donkey serum. Cells were washed three times with PBS++, for 10 min. each time, and were resuspended by gentle scraping in PBS++, 2% BSA for flow cytometry. […]

[2] = tested on: GLUT4 reporter in CHO cells; assay: Flow cytometry assay of GLUT4 reporter translocation to the plasma membrane in CHO cells; type: cell-based, Chinese hamster
Procedure: CHO-K1 cells stably expressing the murine ecotropic retroviral receptor were kindly provided by David Hirsch, Roger Lawrence, and Monty Kreiger (Massachusetts Institute of Technology, Cambridge Mass.), and were maintained in Han's F-12 medium with 10% fetal bovine serum, 2 mM glutamine, 100 U/ml penicillin, and 0.1 mg/ml streptomycin (Baker, B. W., et al., (1992)). To use identical experimental conditions in CHO and 3T3-L1 cells, CHO cells were placed in the same medium used for 3T3-L1 adipocytes two days before assays of GLUT4 trafficking. Phoenix ecotropic retroviral packaging cells were a gift from Garry Nolan (Stanford University Medical Center) and VE23 ecotropic retroviral packaging cells were a gift from Merav Socolovsky (Whitehead Institute, Cambridge Mass.) (Kinsella, and Nolan, Hum Gene Ther. 7:1405-1413 (1996); Socolovsky, M., et al. J Biol Chem. 272:14009-14012 (1997)). Both retroviral packaging cell lines were cultured in DMEM, 10% fetal bovine serum, glutamine, penicillin and streptomycin as above.
Confluent cells were reseeded on the indicated day of differentiation to six well plates (Coming, Costar #3506) one day before use in experiments, and were starved in DMEM without fetal bovine serum for at least 3 hours before insulin stimulation. Insulin was used at 80 nM or 160 nM; no difference was noted between these concentrations in either 3T3-L1 or CHO cells. After treatment in the presence or absence of insulin for the times indicated in each figure, cells were quickly transferred to 4° C. and washed with cold phosphate buffered saline containing 0.9 mM Ca^++ and 0.5 mM Mg^++ (PBS++). All subsequent steps were carried out at 4° C., and staining of externalized myc epitope was done on adherent cells. Cells were incubated with a 1:200 dilution of anti-myc (9E10) ascites in PBS++, 2% bovine serum albumin, 4% donkey serum for 1.5 hours. Cells were then washed twice in PBS++, for 5 min. each time. They were then incubated 45 min. in 12.5 µg/ml R-phycoerythrin conjugated donkey F(ab′)2 anti-mouse IgG secondary antibody, diluted in PBS++, 2% BSA, 4% donkey serum. Cells were washed three times with PBS++, for 10 min. each time, and were resuspended by gentle scraping in PBS++, 2% BSA for flow cytometry. For experiments involving insulin removal, cells were chilled as above after insulin stimulation, then washed twice with 5 mM sodium acetate, 150 mM NaCl, pH 4.0 (Yang, J., et al., J Biol Chem. 267:1039310399 (1992); Kao, A. W., et al., J Biol Chem. 273:25450-25457 (1998)). Cells were rewarmed in 37° C. DMEM for the times indicated, restimulated or not with insulin, and then returned to 4° C. and chilled with cold PBS++ before staining as above.
Flow cytometry was done on FACScan or FACSCalibur cytometers (Becton-Dickinson). Appropriate compensation between the FL1 and FL2 channels was set using uninfected (GFP-negative) cells or cells stained with PE only (e.g. using a PE-conjugated anti-transferrin receptor antibody; Pharmingen). […] For each sample, data from ≧10,000 cells were collected. Median fluorescence intensities were used for quantitation, since this measure of central tendency is least sensitive to outliers. For each sample, the PE and GFP fluorescence specifically attributable to the presence of the GLUT4 reporter were determined by subtracting background fluorescences, measured using control unstained cells and cells not expressing the reporter, respectively.
Whether this recycling mechanism is present in an unrelated cell type was also assessed. This was done by infecting Chinese Hamster Ovary (CHO) cells expressing the murine ecotropic retroviral receptor with a retrovirus carrying the GLUT4 reporter, and using FACS to isolate cells falling within a narrow range of GFP fluorescence intensities. CHO cells are smaller and have less autofluorescence than 3T3-L1 adipocytes or fibroblasts. […]

[3] = tested on: GLUT4myc-GFP in 3T3-L1 adipocytes; assay: Time-lapse video fluorescence microscopy of GLUT4myc-GFP in 3T3-L1 adipocytes; type: cell-based, murine; details: 3T3-L1 adipocyte; 2.5, 5 and 10 minutes after insulin
Procedure: Time lapse video fluorescence microscopy was performed using a Nikon Diaphot 300 inverted microscope as described (Smith, G. A., et al., J Cell Biol. 135:647-660 (1996)). 3T3-L1 adipocytes expressing GLUT4myc-GFP were reseeded to 25 mm round coverslips and were incubated in serum-free DMEM for at least three hours before microscopy. Cells were maintained at 37° C. during microscopy using an aluminum chamber mounted on the stage and connected to a circulating waterbath. Images were acquired every 15 sec using a Hammamatsu CCD camera and Metamorph software (Universal Imaging Corp., West Chester, Pa.).
The GLUT4 reporter in a murine retroviral vector was used to infect 3T3-L1 fibroblasts. The infected cells underwent normal adipose differentiation (see below), and we took several approaches to confirm that the GLUT4 reporter traffics appropriately. […] In the absence of insulin, GFP fluorescence is present in the perinuclear pattern that is characteristic of GLUT4, as well as in punctate structures near the plasma membrane and throughout the cytoplasm. Lipid droplets are present in the cytoplasm, and are seen as discrete areas of reduced fluorescence intensity.

[4] = tested on: GLUT4 in adipocytes; details: ≦10% in the absence of insulin; cited from earlier work
[5] = CHO cells in DMEM, 80 nM insulin

## insulin
[1]; 3T3-L1 adipocytes, 10 min
  fold increase in the proportion of total GLUT4 present at the cell surface: 5.0 fold
[1]; 3T3-L1 cells
  difference in response between 80 nM and 160 nM insulin: no difference
[1]; all stages of 3T3-L1 differentiation, 80 nM insulin
  fall of the fraction of GLUT4 on the plasma membrane after the peak: 30% to 40%
[1]; confluent 3T3-L1 fibroblasts, 5 min
  fold increase in the proportion of total GLUT4 present at the cell surface: 4.4 fold
[1]; mature (Day 8 and 10) 3T3-L1 adipocytes, 80 nM insulin
  average maximal increase in the proportion of GLUT4 at the cell surface: 5.4 fold
[2]; CHO cells
  difference in response between 80 nM and 160 nM insulin: no difference
[2]; CHO cells cultured in DME medium (25 mM glucose), 80 nM insulin
  kinetics of GLUT4 redistribution after insulin addition: biphasic kinetics
[2]; CHO cells cultured in F12 medium (10 mM glucose), 80 nM insulin
  kinetics of GLUT4 externalization after insulin addition: essentially monophasic response
[2]; [5]
  time of peak GLUT4 externalization after insulin addition: four to five
  time to steady state of cell-surface GLUT4 after insulin addition: twenty
[2]; CHO cells in DMEM, 80 nM insulin, 5 minutes after addition
  peak fold increase in the proportion of GLUT4 at the cell surface versus unstimulated cells: 5.5 fold
[2]; CHO cells, several experiments
  part of the peak increase in cell-surface GLUT4 eliminated in the subsequent decrease: 50% to 60%
[2]; confluent CHO cells, insulin 80 nM, 8 min
  fold increase in the proportion of total GLUT4 present at the cell surface: 3.5 fold
[3]
  distribution of GFP fluorescence after insulin addition: redistribution of fluorescence to the plasma membrane
[4]
  proportion of GLUT4 at the cell surface in the presence of insulin: approximately 50%
